In patent US12178842B2, “PCSK9 antagonist compounds” (MERCK SHARP & DOHME LLC, priority 2019, dated 2024):

Columns and labels:
Type in all cases: binding
PCSK9 [1] = molecular target: T1, PCSK9 (Homo sapiens, UniProt Q8NBP7); experiment: PCSK9 Alexa FRET Standard TR-FRET assay; conditions: Ki calculated from IC50 and KD of AF cyclic peptide Reagent A; 0.5 nM PCSK9, 20 nM AF cyclic peptide; read-out: Alexa FRET Stdt TR-FRET
T1 construct: biotin (biotinylated); purchased
In short: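 TR-FRET displacement with final 0.5 nM biotinylated PCSK9, 1.25 nM streptavidin-Eu and 20 nM AlexaFluor cyclic peptide in 50 mM HEPES pH 7.4, 0.15 M NaCl, 5 mM CaCl2, 0.01% BSA, 0.01% P20; ≥2 h at room temperature. IC50 by sigmoidal fit, converted to Ki (nM) using tracer KD.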

PCSK9 [2] = molecular target: T1, PCSK9; experiment: PCSK9 Alexa FRET Plus TR-FRET assay
In short: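 TR-FRET competition between europium-labeled PCSK9 and AlexaFluor-tagged cyclic peptide (prepared at 1920 nM stock), incubated at least 2 h at room temperature. IC50 from sigmoidal nonlinear fit converted to Ki using the peptide KD; falling europium counts flag false-positive inhibition; values reported in nM.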

PCSK9 [3] = molecular target: T1, PCSK9; experiment: PCSK9 Alexa FRET Ultra TR-FRET assay
In short: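 Competition of compounds with AlexaFluor-tagged cyclic peptide (1920 nM solution, not final) for europium-labeled PCSK9, read by TR-FRET after at least 2 h at room temperature. IC50 from sigmoidal fit, converted to Ki (nM) using peptide KD; falling europium counts flag false positives.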

[4] = Ki calculated from IC50 and KD of AF cyclic peptide Reagent B, 0.5 nM PCSK9, 960 nM AF cyclic peptide, read-out: Alexa FRET Plus TR-FRET
[5] = Ki Ultra, calculated from IC50 and KD of AF cyclic peptide, 0.5 nM PCSK9, 960 nM AF cyclic peptide, read-out: Alexa FRET Ultra TR-FRET

T1 sequence (Q8NBP7 153-692): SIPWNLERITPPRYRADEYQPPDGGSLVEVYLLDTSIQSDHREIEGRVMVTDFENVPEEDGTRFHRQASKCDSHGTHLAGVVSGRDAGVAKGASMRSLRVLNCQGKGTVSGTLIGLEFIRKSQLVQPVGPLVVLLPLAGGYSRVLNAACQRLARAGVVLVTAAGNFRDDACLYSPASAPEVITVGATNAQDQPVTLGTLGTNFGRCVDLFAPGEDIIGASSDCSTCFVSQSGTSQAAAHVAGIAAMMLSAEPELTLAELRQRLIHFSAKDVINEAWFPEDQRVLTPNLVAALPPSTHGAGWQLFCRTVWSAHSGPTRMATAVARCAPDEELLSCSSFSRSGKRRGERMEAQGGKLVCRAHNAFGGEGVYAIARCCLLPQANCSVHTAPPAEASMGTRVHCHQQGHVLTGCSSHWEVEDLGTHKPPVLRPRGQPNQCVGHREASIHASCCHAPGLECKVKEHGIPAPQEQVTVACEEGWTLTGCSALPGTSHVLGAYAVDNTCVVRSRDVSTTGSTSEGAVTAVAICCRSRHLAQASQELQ

Structure (SMILES)	Ki (PCSK9 [1]) [pM]	Ki (PCSK9 [2]; [4]) [pM]	Ki (PCSK9 [3]; [5]) [pM]	Ki (PCSK9 [2]) [pM]	Ki (PCSK9 [3]) [pM]
COc1ccc(C[C@@H]2NC(=O)[C@H]([C@@H](C)O)NC(=O)[C@@H]3[C@@H]4CCN3C(=O)[C@@H]3Cc5cn(c6ccc(F)cc56)CCCCCCN(Cc5ccc(cc5)CCNC(=O)[C@]5(C)CCCN5C2=O)C(=O)CCC(=O)N[C@@H](C)C(=O)N[C@H](CNC(=O)CC[C@H](NC(=O)CCCCC[N+](C)(C)CCNC(=O)COCCOCCNC(=O)COCCOCCNC(=O)CC[C@H](NC(=O)CCCCCCCCCCCCCCCCC(=O)O)C(=O)O)C(=O)O)C(=O)N[C@@H](Cc2cccc(c2)CNC(=O)CO4)C(=O)N3)cc1 [compound 33]	< 1260	14	16		
COc1ccc(C[C@@H]2NC(=O)[C@H]([C@@H](C)O)NC(=O)[C@@H]3[C@@H]4CCN3C(=O)[C@@H]3Cc5cn(c6ccc(F)cc56)CCCCCCN(Cc5ccc(cc5)CCNC(=O)[C@]5(C)CCCN5C2=O)C(=O)CCC(=O)N[C@@H](C)C(=O)N[C@H](CNC(=O)COCCOCCNC(=O)COCCOCCNC(=O)CC[C@H](NC(=O)CC[C@H](NC(=O)CCOCCOCC[N+](C)(C)CCNC(=O)CCCCCCCCCCCCCCC(=O)O)C(=O)O)C(=O)O)C(=O)N[C@@H](Cc2cccc(c2)CNC(=O)CO4)C(=O)N3)cc1 [compound 37]	< 1260	< 6	6		
COc1ccc(C[C@@H]2NC(=O)[C@H]([C@@H](C)O)NC(=O)C3C4CCN3C(=O)[C@@H]3Cc5cn(c6ccc(F)cc56)CCCCCCN(Cc5ccc(cc5)CCNC(=O)[C@]5(C)CCCN5C2=O)C(=O)CCC(=O)N[C@@H](C)C(=O)N[C@H](CNC(=O)CCOCCOCC[N+](C)(C)CCNC(=O)CCOCCOCC[N+](C)(C)CCNC(=O)COCCOCCNC(=O)COCCOCCNC(=O)CCCCCCCCCCCCCCC(=O)O)C(=O)N[C@@H](Cc2cccc(c2)CNC(=O)CO4)C(=O)N3)cc1 [compound 43]	< 1260	< 6	2		
COc1ccc(C[C@@H]2NC(=O)[C@H]([C@@H](C)O)NC(=O)[C@@H]3[C@@H]4CCN3C(=O)[C@@H]3Cc5cn(c6ccc(F)cc56)CCCCCCN(Cc5ccc(cc5)CCNC(=O)[C@]5(C)CCCN5C2=O)C(=O)CCC(=O)N[C@@H](C)C(=O)N[C@H](CNC(=O)COCCOCC[N+](C)(C)CCOCCNC(=O)COCCOCCNC(=O)COCCOCCNC(=O)CC[C@H](NC(=O)CCCCCCCCCCCCCCC(=O)O)C(=O)O)C(=O)N[C@@H](Cc2cccc(c2)CNC(=O)CO4)C(=O)N3)cc1 [compound 45]	< 1260	< 6	2		
COc1ccc(C[C@@H]2NC(=O)[C@H]([C@@H](C)O)NC(=O)[C@@H]3[C@@H]4CCN3C(=O)[C@@H]3Cc5cn(c6ccc(F)cc56)C/C=C/CCCN(Cc5ccc(cc5)CCNC(=O)[C@]5(C)CCCN5C2=O)C(=O)CCC(=O)N[C@@H](C)C(=O)N[C@H](CNC(=O)CCOCCOCC[N+](C)(C)CCNC(=O)COCCOCCNC(=O)COCCOCCNC(=O)CC[C@H](NC(=O)CCCCCCCCCCCCCCC(=O)O)C(=O)O)C(=O)N[C@@H](Cc2cccc(c2)CNC(=O)CO4)C(=O)N3)cc1 [compound 46]	< 1260			< 6	1
